Consider four molecules from patent US7871978B2, “Bone tropic peptides” (University of Virginia Patent Foundation, priority 2004, dated 2011).

The subject of assay [1] is bovine aortic endothelial cells. As to the kind of experiment: Effect of peptides on adherent bovine aortic endothelial cells on fibronectin or collagen. It is filed as cell-based. As to conditions: for Effect on adherent BAEC (Experiment 1): 0.1M biotinylated peptide, 1 hour, cells adhered four hours on fibronectin or collagen. As to the method:
Peptides from the phage display project were added to bovine aortic endothelial cells in culture. The endothelial cells had adhered to a surface coated with collagen or with fibronectin.
Experiment 1: Bovine aortic endothelial cells were plated on glass slides that were coated either fibronectin or collagen. The cell density was 5,000 cells/well. After the cells adhered for four hours, 0.1M of biotinylated peptide was added to each well. The following peptides were used: L1, L2, L5, L6, L7, L12, L13, L14, L19, R1, R3, and R8.
To perform this experiment, the media was removed and the cells were rinsed with 1×PBS plus 1% BSA three times. Peptides were diluted in 1×PBS plus 1% BSA, added to cells and incubated for 1 hour. The cells were rinsed three times with 1% BSA in PBS, and fixed with 2% parafomaldehyde. Aldehyde groups were blocked with 0.2 M HCl-glycine in PBS, the cells were rinsed three times with 1% BSA in PBS and ExtrAvidin-FITC (1:200 dilution) was added and incubated overnight at 4° C. The cells were rinsed three times with 1% BSA in PBS. The chambers and the gasket were removed from each slide, Vectashield was added, covered and viewed on a Nikon microscope. Images were acquired using a Coolsnap digital camera and Metavue software. […]
Experiment 3: The cells were adherent for about 6 hours and peptides at various concentrations were added to the cells. The concentrations of each of the peptides used in this experiment were: 0.1M, 0.01M, 0.001M and 0.0001M biotinylated peptide. The following peptides were tested: L1, L5, L6, L7, L13, L14, R1, R3, R8, DIP1 and PBS control (SEQ ID NOs:1, 3, 4, 5, 8, 9, 11, 13, 14, and 29).

The test system of assay [2] is Unicortical femoral defects. As to the kind of experiment: Peptide-mediated osteogenesis in cortical bone defects (Example 8). It is filed as in vivo, Fisher 344 rats. As to conditions: 100 mM peptide in gelfoam, two weeks postoperatively; for Effectiveness at stimulating osteogenesis and cortical bone repair: versus gelfoam+PBS. As to the method:
In an in vivo study, all 13 peptides at a concentration of 100 mM were tested for their ability to potentiate osteogenesis. A gelfoam cylinder 1.5 mm in diameter 2 mm in length was used as carrier for the peptides. Unicortical femoral defects 1.5 mm in diameter were created bilaterally in Fisher 344 rats; the left femoral defect was filled with gelfoam+PBS (Control), and the right femur with gelfoam+peptide. The samples were harvested and examined two weeks postoperatively. To examine the effect of peptide concentration on cortical bone regeneration, peptide L7 (SEQ ID NO:5) was used at 1, 5, and 20 mM. […] The time course of cortical bone repair with 20 mM L7 was examined at 5, 10, 15, and 20 days.

Assay [3] relates to bone and marrow tissue sections (mouse femur, rib). As to the kind of experiment: Biotinylated peptide binding to bone/marrow tissue sections, Avidin-FITC fluorescence. The protocol:
Methods: Four-week old Swiss Webster mice were euthanized; the femurs were excised and decalcified in 0.25M EDTA in PBS solution for 5 days, and washed in PBS for 24 hours. The femoral shafts were obtained by cutting off the proximal and distal ends of the femur. The femoral shafts were placed in Tissue-Tek O.C.T. Compound (Sukura Finetek, Torrance, Calif.) and frozen at −20° C. overnight. Sections were cut at 10 μm serially with a cryomicrotome, rinsed with 1% BSA in PBS three times. To block non-specific reaction sections were incubated with Avidin/Biotin Blocking Kit (Vector Laboratories, Inc. Burlingame, Calif.) according to the manufacturer's instructions. Following another rinse with PBS, 150 μl 10 mM solution of each biotinylated peptide (L1, L2, L7, R1, R8) was added to the slides and incubated for 1 hour at room temperature. In negative controls, only PBS was added. After rewashes with 1% BSA, 150 μl of 1:50,000 dilution of Avidin-FITC was added to each slide and incubated overnight at 4° C.
The sections were washed with 1% BSA in PBS and mounted with Vectashield (Vector Laboratories Inc., Burlingame, Calif.). Fluorescence was visualized using a Nikon eclipse E600 microscope (Nikon, Melville, N.Y.) equipped with a 535 nm wavelength fluorescein filter. Images were obtained using a Sony DKC-5000 digital camera (Sony Electronics Inc.) and processed with Adobe Photoshop software (Adobe Systems Incorporated, San Jose, Calif.).
(§1) For localization of peptide binding to cells and tissue sections, biotinylated peptides were synthesized. Fluorescein-isothiocyanate (FITC) labeled Avidin was used to localize the peptides on cells in culture and in tissue sections in vitro by epiluminescence microscopy. In addition, the biotinylated peptides were detected at concentrations as low as 1 μM in slot blots.
Cryosections of decalcified femurs harvested from 4 week BALB/c mice were incubated with biotinylated peptide and Avidin-FITC. […] The distribution of fluorescence throughout the marrow was uneven. […] In control slides incubated with PBS without peptide, none of the cells could be detected by fluorescence (not shown). […]

For assay [4], the system named is bone and bone marrow. Description: In vivo biopanning with 12-mer peptide phage display library. Also on record: species or system BALB/c mice. As to conditions: for PERCENT FREQUENCY: phage eluted from bone and bone marrow; for PHAGE SEQUENCE FREQUENCY (number of times the sequence was found in a group of plaques): phage eluted from bone and bone marrow after repeated rounds. The source says:
The Ph.D.-12 Phage Display Peptide Library Kit (New England Biolabs, Beverly, Mass.) used in this study is based on a combinatorial library of random peptide 12-mers fused to a minor coat protein (pIII). […] The peptide is followed by a short spacer of four amino acid residues, the first three residues of which are glycine and the fourth of which is serine, and then the wild-type III sequence. The library consists of approximately 2.7×10^9 electroporated sequences, amplified once to yield approximately 55 copies of each sequence.
For in vivo biopanning, BALB/c mice 8 weeks of age were injected 3.4×10^10 pfu of phage into the heart. The animals were euthanized after 5 minutes, and the tissues (bone, bone marrow, kidney, liver, and spleen) were collected for analysis. The bound phage was eluted according the manufacturer's instructions. The eluted phage was titered, amplified, purified, and injected again at the same concentration.
The frequency of each peptide in bone and bone marrow was compared with its location in other tissues such as liver, kidney, lung, spleen, and brain. Thirteen unique peptide sequences eluted from bone and marrow were identified were identified by sequencing phage DNA. The peptides were synthesized using the polystyrene solid support on a Protein Technologies Symphony Multiple Channel Synthesizer.

Assay [5] has as its system prostate cancer cells. Description: Chimeric tumors of killer-gene mesenchymal cells and prostate cancer cells treated with prodrug. The format is in vivo, immune deficient rats. The protocol: Further experiments were carried out exploiting the phenomenon of mesenchymal cell homing to skeletal tissues. Cells transduced with thymidine kinase or cytidine deaminase, killer genes that can be expressed under the influence of a prodrug, lead to a cell kill effect on neighboring prostate cancer cells in a co-culture system in vitro. In vivo, the mesenchymal cells and prostate cancer cells were co-injected into subcutaneous sites in immune deficient rats. […] Therefore, a cell-based gene delivery system may be useful to pursue as potential therapy for metastatic cancer, particularly prostate cancer cells that have spread to bone.

In assay [6] the test system is Bone marrow cells isolated from mouse femur. As to the kind of experiment: Peptide binding to bone marrow cells in culture (Avidin-FITC). As to conditions: FITC. Further details: key to Localization of peptide binding: Marrow (cells in culture): ✓: Check marks indicate positive binding observed with FITC; −: a dash indicates a negative result. As to the method: as §1
(§2) Bone marrow cells isolated from mouse femur were lifted with ethylenediaminetetraacetic acid (EDTA) and trypsin, resuspended, and allowed to attach on fibronectin-coated chamber slides for Avidin-FITC staining. […] The D1 cell is a multipotential mesenchymal stem-like line that was isolated from bone marrow and shown to have the characteristics of osteoprogenitor cells. This cell line has been well established and used successfully in several in vitro and in vivo studies in our laboratory. Peptide binding to human bone marrow endothelial cells (HBME) and bovine aortic endothelial cells (BAEC) in culture was also tested using the same procedure.

For assay [7], the system named is Membrane and cytosol fractions from bovine aortic endothelial cells. As to the kind of experiment: Affinity chromatography of BAEC fractions on immobilized peptide. It is filed as binding. As to the method:
(§3) Membrane and cytosol fractions from human bone marrow endothelial cells and bovine aortic endothelial cells were prepared and used to identify the components from within these fractions that bind to the peptides using affinity chromatography). […] Cell surface nucleolin is present at higher concentrations in actively dividing cells and is down regulated in cells when they become quiescent. Nucleolin is the apparent cell surface receptor of E-coli intimin-gamma. Cell bound intimin has been proposed to trigger a host cell response similar to the extension of filipodia when cells bind to laminin. […] Table 3 provides a summary of peptide-binding partners (putative receptors) identified by affinity chromatography of cell lysates.

Assay [8] has as its system bovine aortic endothelial cells (BAEC). As to the kind of experiment: Peptide binding to BAEC in culture (Avidin-FITC). Further details: key: ✓: Check marks indicate positive binding observed with FITC; −: a dash indicates a negative result. As to the method:
as §1, §2

The test system of assay [9] is Membrane and cytosol fractions from human bone marrow endothelial cells. Description: Affinity chromatography of HBME fractions on immobilized peptide. It is filed as binding. Further details: key to Identification of binding partners by affinity chromatography: HBME: ✓: Check marks indicate positive binding observed with FITC; −: a dash indicates a negative result. As to conditions: cell lysates. As to the method:
as §3
Peptide Affinity Column Chromatography: Peptides identified from the phage display experiments in mouse bone and bone marrow were synthesized with an additional three-residue glycine linker and an N-terminal lysine residue. The lysine residue was used to specifically link the peptides to a support. Cell membranes from BMECs were solubilized with triton X-100. The solubilized proteins were passed through the peptide affinity column (total volume, 500 μL) followed by extensive washes with buffer. Retained proteins were eluted either with 100 mM solution of the same peptide as that immobilized on the column or with a wash of 0.1 N HCl-Glycine, pH 2.2. The eluates were analyzed by SDS PAGE and proteins observed in the gels were identified by LC/MS/MS.

Setting [10] is: BALB/c mouse decalcified femur cryosections, biotinylated peptide and Avidin-FITC.
Where [11] appears, read: BALB/c mouse femur cryosections, biotinylated peptide.
The mark [12] stands for this setting: Swiss Webster mouse decalcified femur cryosections, 10 mM biotinylated peptide, 1 hour, Avidin-FITC.
The mark [13] stands for this setting: Swiss Webster mouse femur cryosections, 10 mM biotinylated peptide.

As for “LEU-LEU-ALA-ASP-THR-THR-HIS-HIS-ARG-PRO-TRP-THR-GLY-GLY-GLY-SER (LLADTTHHRPWTGGGS; listed as Homo sapiens) [Peptide L2]”, the “Effect on adherent BAEC (Experiment 1)” value in assay [1] is “no effect, with results similar to PBS”. In addition, in assay [2], the “Histological appearance of repair tissue in the defect” value is “a considerable amount of gelfoam remaining in the defects, with thinner and more loosely organized cortical bone”; the “Effectiveness at stimulating osteogenesis and cortical bone repair” value (from here on “Effectiveness”) is listed as “least effective for cortical bone repair”. The “Fluorescence detected in femur sections incubated with peptide” value (“Fluorescence detected” below) in assay [3] (setting [10]) is “Fluorescence was detected”. In addition, in assay [3] (setting [11]), the “Cell shape preferentially recognized by peptide” value is listed as “recognized cells with mostly irregular shapes” and the “Extent of marrow cells detected by fluorescence” value (“Extent of marrow cells detected” for short) was “did not detect as many cells”. In addition, in [3] (setting [12]), the “Fluorescence detected” value is on record as “Fluorescence was detected”. In addition, in [3] (setting [13]), the “Cell shape preferentially recognized by peptide” value is reported as “recognized cells with mostly irregular shapes” and the “Extent of marrow cells detected” value is “did not detect as many cells”. Besides, in assay [4], the “PERCENT FREQUENCY” value was determined as 32.1% and the “PHAGE SEQUENCE FREQUENCY (number of times the sequence was found in a group of plaques)” value (shortened to “PHAGE SEQUENCE FREQUENCY”) is recorded as 9/28.

As to `Nc1nc2c(ncn2COC(CO)CO)c(=O)[nH]1` [gencyclovir], the “Size of chimeric tumors” value in assay [5] (mesenchymal cells and prostate cancer cells co-injected subcutaneously, prodrug treatment) is reported as “diminished in size”. Moreover, the “Serum PSA levels” value in assay [5] (treated rats) was “drop in serum PSA levels”.

Regarding “GLN-ARG-SER-TRP-THR-LEU-ASP-SER-ALA-LEU-SER-MET-GLY-GLY-GLY-SER (QRSWTLDSALSMGGGS; listed as Homo sapiens) [Peptide L12]”, the “Localization of peptide binding: Marrow (cells in culture)” value in [6] was “✓”. Moreover, the “Binding partner from BAEC lysates” value in assay [7] (biotinylated peptide immobilized on avidin-agarose) is listed as “vimentin was found to bind”. For the same molecule, the “Identification of binding partners by affinity chromatography: BAEC” value in assay [7] (cell lysates) is “✓Vimentin”. Besides, the “Effect on adherent BAEC (Experiment 1)” value in assay [1] was “the cells lifted and formed clusters that stained intensely”. Further, the “Effect on adherent BAEC (Experiment 3)” value in assay [1] (0.1M peptide, cells adherent about 6 hours) was “formed fewer clumps and considerably more debris”. For the same molecule, the “Effectiveness” value in assay [2] was “most effective at stimulating osteogenesis and cortical bone repair”. In addition, the “Localization of peptide binding: BAEC” value in assay [8] was “✓”. In assay [9], the “Identification of binding partners by affinity chromatography: HBME” value was “−”. Besides, in [4], the “PERCENT FREQUENCY” value turned out to be 16.7% and the “PHAGE SEQUENCE FREQUENCY” value was 5/30.

As for “THR-MET-ARG-ASN-PRO-ILE-THR-SER-LEU-ILE-SER-VAL-GLY-GLY-GLY-SER (TMRNPITSLISVGGGS; listed as Homo sapiens) [Peptide L1]”, in assay [1], the “Effect on adherent BAEC (Experiment 1)” value was “the cells lifted and formed clusters that stained intensely”. In assay [2], the “Histological appearance of repair tissue in the defect” value was “a considerable amount of gelfoam remaining in the defects, with thinner and more loosely organized cortical bone”; the “Effectiveness” value is on record as “least effective for cortical bone repair”. The “Fluorescence detected” value in assay [3] (setting [10]) was “Fluorescence was detected”. In assay [3] (setting [11]), the “Cell shape preferentially recognized by peptide” value is “recognized the round cells preferentially” and the “Extent of marrow cells detected” value is recorded as “did not detect as many cells”. In addition, the “Fluorescence detected” value in assay [3] (setting [12]) is given as “Fluorescence was detected”. In assay [3] (setting [13]), the “Cell shape preferentially recognized by peptide” value was “recognized the round cells preferentially” and the “Extent of marrow cells detected” value is listed as “did not detect as many cells”. For the same molecule, in [4], the “PERCENT FREQUENCY” value was 28.6% and the “PHAGE SEQUENCE FREQUENCY” value is on record as 8/28.
